In patent publication US20230265151A1, “GIP/GLP1 CO-AGONIST COMPOUNDS” (priority 2020, published 2023) one finds Emax and EC50 data, which are given here for 3 molecules.

Assay type in all cases: cell-based
In one experiment the target is hGLP-1R (Homo sapiens, UniProt P43220). The experiment is described as follows: Functional cAMP formation (HTRF) in HEK-293 clonal cells expressing hGLP-1R, 0.1% bovine casein, without or with 1.0% human serum albumin. As to conditions: for EC50: geometric mean. Set-up: expressed in transfected cells. Put shortly: (§1)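 Cells were stimulated with peptide for 30 min at 37° C, then intracellular cAMP was measured by competitive HTRF (665/620 nm ratio) and converted to nM using a cAMP standard curve. Relative EC50 and Emax came from four-parameter logistic fits of percent maximal response against peptide concentration.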
hGLP-1R, sequence (P43220 24-463): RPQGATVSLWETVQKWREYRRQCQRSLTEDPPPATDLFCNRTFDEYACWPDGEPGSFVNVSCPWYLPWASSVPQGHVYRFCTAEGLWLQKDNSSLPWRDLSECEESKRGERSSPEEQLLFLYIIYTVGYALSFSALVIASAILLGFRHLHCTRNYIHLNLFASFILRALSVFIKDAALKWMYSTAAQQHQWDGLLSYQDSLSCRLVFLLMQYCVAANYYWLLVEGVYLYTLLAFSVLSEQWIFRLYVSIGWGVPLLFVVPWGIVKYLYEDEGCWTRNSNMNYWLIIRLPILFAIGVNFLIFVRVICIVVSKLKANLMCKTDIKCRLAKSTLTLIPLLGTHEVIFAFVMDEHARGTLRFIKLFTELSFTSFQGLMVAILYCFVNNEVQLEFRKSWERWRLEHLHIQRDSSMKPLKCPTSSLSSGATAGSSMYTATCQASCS
In general terms: Changes in cAMP serve as a functional read-out for many G protein-coupled receptors.

A further experiment deals with T1, hGCGR (Homo sapiens, UniProt P47871).
T1 construct: expressed in transfected cells
T1 sequence (P47871 26-477): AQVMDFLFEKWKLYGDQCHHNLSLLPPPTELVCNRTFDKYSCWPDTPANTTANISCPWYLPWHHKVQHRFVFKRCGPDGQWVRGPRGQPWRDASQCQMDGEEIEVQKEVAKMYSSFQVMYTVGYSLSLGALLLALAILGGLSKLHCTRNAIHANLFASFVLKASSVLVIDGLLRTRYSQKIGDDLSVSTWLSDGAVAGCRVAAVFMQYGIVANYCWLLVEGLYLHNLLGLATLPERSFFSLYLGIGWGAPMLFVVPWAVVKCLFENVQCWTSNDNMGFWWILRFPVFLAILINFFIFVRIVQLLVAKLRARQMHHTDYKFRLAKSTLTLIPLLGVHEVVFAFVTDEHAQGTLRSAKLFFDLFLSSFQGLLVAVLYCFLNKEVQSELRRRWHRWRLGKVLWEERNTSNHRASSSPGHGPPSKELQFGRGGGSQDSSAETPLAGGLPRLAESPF
Put plainly: Functional cAMP formation (HTRF) in HEK-293 clonal cells expressing hGCGR, 0.1% bovine casein, without or with 1.0% human serum albumin. The conditions noted are these: geometric mean. The procedure, abridged: as §1

The target of the next experiment is T2, hGIPR (Homo sapiens, UniProt P48546).
T2 construct: expressed in transfected cells
T2 sequence (P48546 22-466): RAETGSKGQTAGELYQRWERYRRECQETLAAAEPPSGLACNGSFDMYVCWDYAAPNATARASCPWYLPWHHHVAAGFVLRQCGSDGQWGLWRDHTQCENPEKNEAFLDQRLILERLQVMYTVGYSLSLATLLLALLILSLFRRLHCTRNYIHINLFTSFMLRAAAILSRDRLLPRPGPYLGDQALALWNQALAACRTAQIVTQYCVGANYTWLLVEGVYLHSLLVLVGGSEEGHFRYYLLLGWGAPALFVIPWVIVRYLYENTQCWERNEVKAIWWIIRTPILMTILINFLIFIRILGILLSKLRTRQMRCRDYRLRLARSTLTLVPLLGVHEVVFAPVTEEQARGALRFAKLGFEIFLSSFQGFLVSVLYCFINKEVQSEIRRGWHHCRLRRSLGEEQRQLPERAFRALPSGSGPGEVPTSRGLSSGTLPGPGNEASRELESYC
The experiment is described as follows: Functional cAMP formation (HTRF) in HEK-293 clonal cells expressing hGIPR, 0.1% bovine casein, without or with 1.0% human serum albumin. As to conditions: for EC50: geometric mean. The procedure, abridged:
as §1

[1] abbreviates: HEK293, 0.1% bovine casein and 1.0% human serum albumin, 37° C., percent of maximal response to GLP-1(7-36)NH2, read-out: hGLP-1R Emax, % ± SEM.
Where [2] appears, read: 0.1% bovine casein and 1.0% human serum albumin, 37° C., read-out: hGCGR EC50, nM (SEM, n).
Where [3] appears, read: HEK293, 0.1% bovine casein and 1.0% human serum albumin, 37° C., percent of maximal response to GIP(1-42)NH2, read-out: hGIPR Emax, % ± SEM.

Structures are written as SMILES. Like-named read-outs stand apart in the source and are kept apart here. *1 amine or outer side, *2 acyl side, *3 side chain or, on linkers, in order; H or OH if unused. Where a SMILES comes first, the peptide text is derived from it. Side-chain parts run from the residue outwards. [ ]: non-standard residue; d: D form. The star is where a group is joined. αMePhe(2-F) = C[C@](N)(Cc1ccccc1F)C(=O)O; γGlu = O=C(O)[C@H](CCC(=O)[*:2])N[*:1]; C14 diacid = O=C(O)CCCCCCCCCCCCC(=O)*; αMeY = C[C@](N)(Cc1ccc(O)cc1)C(=O)O; 4Pal = N[C@@H](Cc1ccncc1)C(=O)O; αMeL = CC(C)C[C@](C)(N)C(=O)O; Orn = NCCC[C@H](N)C(=O)O; AEEA = NCCOCCOCC(=O)O; Aib = CC(C)(N)C(=O)O Where only a bound is given, the exact number is not on record here.

By Emax is commonly meant the maximal effect, on the per cent scale that the assay sets. A word on the EC50: it is the concentration at which the effect is half-maximal. As to `CC[C@H](C)[C@H](NC(=O)[C@H](CCCN)NC(=O)[C@H](CC(=O)O)NC(=O)[C@H](CC(C)C)NC(=O)[C@](C)(CC(C)C)NC(=O)[C@@H](NC(=O)C(C)(C)NC(=O)[C@H](Cc1ccncc1)NC(=O)[C@H](CC(=O)O)NC(=O)[C@H](CO)NC(=O)[C@@H](NC(=O)[C@](C)(Cc1ccccc1F)NC(=O)[C@@H](NC(=O)CNC(=O)[C@H](CCC(=O)O)NC(=O)C(C)(C)NC(=O)[C@@H](N)Cc1ccc(O)cc1)[C@@H](C)O)[C@@H](C)O)[C@@H](C)CC)C(=O)N[C@@H](C)C(=O)N[C@@H](CCC(N)=O)C(=O)NC(C)(C)C(=O)N[C@@H](CCCCNC(=O)COCCOCCNC(=O)COCCOCCNC(=O)CC[C@H](NC(=O)CCCCCCCCCCCCC(=O)O)C(=O)O)C(=O)N[C@@H](Cc1ccccc1)C(=O)N[C@H](C(=O)N[C@@H](CCCCNC(=O)COCCOCCNC(=O)COCCOCCNC(=O)CC[C@H](NC(=O)CCCCCCCCCCCCC(=O)O)C(=O)O)C(=O)N[C@@](C)(Cc1ccc(O)cc1)C(=O)N[C@@H](CC(C)C)C(=O)N[C@H](C(=O)N[C@@H](CCC(=O)O)C(=O)NCC(=O)NCC(=O)N1CCC[C@H]1C(=O)N[C@@H](CO)C(=O)N[C@@H](CO)C(=O)NCC(=O)N[C@@H](C)C(=O)N1CCC[C@H]1C(=O)N1CCC[C@H]1C(=O)N1CCC[C@H]1C(=O)N[C@@H](CO)C(N)=O)[C@@H](C)CC)[C@@H](C)CC` [Example 218] (H-Y[Aib]EGT[αMePhe(2-F)]TSD[4Pal][Aib]I[αMeL]LD[Orn]IAQ[Aib]K([AEEA-AEEA-γGlu-C14 diacid])FIK([AEEA-AEEA-γGlu-C14 diacid])[αMeY]LIEGGPSSGAPPPS-NH2; N-terminus assumed), the Emax came out at 121% at hGLP-1R (HEK293, read-out: hGLP-1R Emax, % ± SEM, 0.1% bovine casein and 1.0% human serum albumin, 37° C., percent of maximal response to GLP-1(7-36)NH2); 92.6% at hGLP-1R (HEK293, read-out: hGLP-1R Emax, % ± SEM, percent of maximal response to GLP-1(7-36)NH2, 37° C., 0.1% bovine casein, arithmetic mean); 95.9% on hGIPR (HEK293, read-out: hGIPR Emax, % ± SEM, 0.1% bovine casein and 1.0% human serum albumin, 37° C., percent of maximal response to GIP(1-42)NH2); 90.2% on hGIPR (HEK293, read-out: hGIPR Emax, % ± SEM, percent of maximal response to GIP(1-42)NH2, 37° C., 0.1% bovine casein, arithmetic mean). For the same molecule, the EC50 at hGLP-1R (hGLP-1R EC50, nM (SEM, n), 0.1% bovine casein and 1.0% human serum albumin, 37° C.) was 36.6 nM; on hGLP-1R (hGLP-1R EC50, nM (SEM, n), cAMP, incubated at 37° C., 0.1% bovine casein (no human serum albumin)), 0.714 nM; on hGCGR (hGCGR EC50, nM (SEM, n), 0.1% bovine casein and 1.0% human serum albumin, 37° C.), over 9950 nM; at hGCGR (hGCGR EC50, nM (SEM, n), cAMP, incubated at 37° C., 0.1% bovine casein (no human serum albumin)), over 9950 nM; on hGIPR (hGIPR EC50, nM (SEM, n), 0.1% bovine casein and 1.0% human serum albumin, 37° C.), 3.27 nM; on hGIPR (hGIPR EC50, nM (SEM, n), cAMP, incubated at 37° C., 0.1% bovine casein (no human serum albumin)), 0.0515 nM.

On to `CC[C@H](C)[C@H](NC(=O)[C@H](CCCN)NC(=O)[C@H](CC(=O)O)NC(=O)[C@H](CC(C)C)NC(=O)[C@](C)(CC(C)C)NC(=O)[C@@H](NC(=O)[C@H](CO)NC(=O)[C@H](Cc1ccc2ccccc2c1)NC(=O)[C@H](CC(=O)O)NC(=O)[C@H](CO)NC(=O)[C@@H](NC(=O)[C@](C)(Cc1ccccc1F)NC(=O)[C@@H](NC(=O)CNC(=O)[C@H](CCC(=O)O)NC(=O)C(C)(C)NC(=O)[C@@H](N)Cc1ccc(O)cc1)[C@@H](C)O)[C@@H](C)O)[C@@H](C)CC)C(=O)N[C@@H](C)C(=O)N[C@@H](CCC(N)=O)C(=O)NC(C)(C)C(=O)N[C@@H](CCC(=O)O)C(=O)N[C@@H](Cc1ccccc1)C(=O)N[C@H](C(=O)N[C@@H](CCCCNC(=O)COCCOCCNC(=O)COCCOCCNC(=O)CC[C@H](NC(=O)CCCCCCCCCCCCC(=O)O)C(=O)O)C(=O)N[C@@](C)(Cc1ccc(O)cc1)C(=O)N[C@@H](CC(C)C)C(=O)N[C@H](C(=O)N[C@@H](CCCCNC(=O)COCCOCCNC(=O)COCCOCCNC(=O)CC[C@H](NC(=O)CCCCCCCCCCCCC(=O)O)C(=O)O)C(=O)NCC(=O)NCC(=O)N1CCC[C@H]1C(=O)N[C@@H](CO)C(=O)N[C@@H](CO)C(=O)NCC(=O)N[C@@H](C)C(=O)N1CCC[C@H]1C(=O)N1CCC[C@H]1C(=O)N1CCC[C@H]1C(=O)N[C@@H](CO)C(N)=O)[C@@H](C)CC)[C@@H](C)CC` [Example 252], for which the Emax turned out to be 115% at hGLP-1R (setting [1]); 115% at hGLP-1R (HEK293, cAMP, 37° C., 0.1% bovine casein, percent of maximal response to GLP-1(7-36)NH2, arithmetic mean, read-out: hGLP-1R Emax, % ± SEM); 87.2% at hGIPR (setting [3]); 109% on hGIPR (HEK293, cAMP, 37° C., 0.1% bovine casein, percent of maximal response to GIP(1-42)NH2, arithmetic mean, read-out: hGIPR Emax, % ± SEM). Moreover, the EC50 on hGLP-1R (cAMP, 37° C., 0.1% bovine casein (no human serum albumin), read-out: hGLP-1R EC50, nM (SEM, n)) is 0.555 nM; on hGCGR (setting [2]), over 9950 nM; at hGCGR (cAMP, 37° C., 0.1% bovine casein (no human serum albumin), read-out: hGCGR EC50, nM (SEM, n)), over 9950 nM.

As for `CC[C@H](C)[C@H](NC(=O)[C@H](CC(C)C)NC(=O)[C@](C)(Cc1ccc(O)cc1)NC(=O)[C@@H](CCC(=O)O)NC(=O)[C@@H](NC(=O)[C@H](Cc1ccccc1Cl)NC(=O)[C@H](CCC(=O)O)NC(=O)C(C)(C)NC(=O)[C@H](CCC(N)=O)NC(=O)[C@H](C)NC(=O)[C@H](CCCCNC(=O)COCCOCCNC(=O)COCCOCCNC(=O)CC[C@H](NC(=O)CCCCCCCCCCCCC(=O)O)C(=O)O)NC(=O)[C@H](CCCN)NC(=O)[C@H](CC(=O)O)NC(=O)[C@H](CC(C)C)NC(=O)[C@](C)(CC(C)C)NC(=O)[C@@H](NC(=O)[C@H](CO)NC(=O)[C@H](Cc1ccncc1)NC(=O)[C@H](CC(=O)O)NC(=O)[C@H](CO)NC(=O)[C@@H](NC(=O)[C@](C)(Cc1ccccc1F)NC(=O)[C@@H](NC(=O)CNC(=O)[C@H](CCC(=O)O)NC(=O)C(C)(C)NC(=O)[C@@H](N)Cc1ccc(O)cc1)[C@@H](C)O)[C@@H](C)O)[C@@H](C)CC)[C@@H](C)CC)C(=O)N[C@@H](CCC(=O)O)C(=O)NCC(=O)NCC(=O)N[C@@H](CCCCNC(=O)COCCOCCNC(=O)COCCOCCNC(=O)CC[C@H](NC(=O)CCCCCCCCCCCCC(=O)O)C(=O)O)C(=O)N[C@@H](CO)C(=O)N[C@@H](CO)C(=O)NCC(=O)N[C@@H](C)C(=O)N1CCC[C@H]1C(=O)N1CCC[C@H]1C(=O)N1CCC[C@H]1C(=O)N[C@@H](CO)C(N)=O` [Example 61], the Emax at hGLP-1R (setting [1]) was 89.7%; on hGLP-1R (HEK293, percent of maximal response to GLP-1(7-36)NH2, 37° C., 0.1% bovine casein, arithmetic mean, read-out: hGLP-1R Emax, % ± SEM) it was 82.9%; at hGIPR (setting [3]), 92.8%; on hGIPR (HEK293, percent of maximal response to GIP(1-42)NH2, 37° C., 0.1% bovine casein, arithmetic mean, read-out: hGIPR Emax, % ± SEM), 88.2%. Further, the EC50 on hGCGR (setting [2]) is over 9950 nM; at hGCGR (cAMP, incubated at 37° C., 0.1% bovine casein (no human serum albumin), read-out: hGCGR EC50, nM (SEM, n)), over 9950 nM; at hGIPR (cAMP, incubated at 37° C., 0.1% bovine casein (no human serum albumin), read-out: hGIPR EC50, nM (SEM, n)), 0.012 nM.
